Tests used:
Type in all cases: functional
Settings in all cases: read-out: IZ
Priestia megaterium = experiment: Antimicrobial activity against Bacillus megaterium at 1000 ug/mL after 24 hrs by paper disk diffusion method
Micrococcus luteus = experiment: Antimicrobial activity against Micrococcus luteus at 1000 ug/mL after 24 hrs by paper disk diffusion method
Klebsiella pneumoniae = experiment: Antimicrobial activity against sKlebsiella pneumoniae at 1000 ug/mL after 24 hrs by paper disk diffusion method
Alcaligenes faecalis = experiment: Antimicrobial activity against Alcaligenes faecalis at 1000 ug/mL after 24 hrs by paper disk diffusion method
Escherichia coli = experiment: Antimicrobial activity against Escherichia coli at 1000 ug/mL after 24 hrs by paper disk diffusion method
Saccharomyces cerevisiae = experiment: Antimicrobial activity against Saccharomyces cerevisiae at 1000 ug/mL after 24 hrs by paper disk diffusion method
Staphylococcus aureus = experiment: Antimicrobial activity against Staphylococcus aureus at 1000 ug/mL after 24 hrs by paper disk diffusion method

CCC(O)CC1CCC(C(C)C(=O)OC(C)CC2CCC(C(C)C(=O)O)O2)O1 (configuration not stated) [BONACTIN]
zone of inhibition at 1000 µg/mL (Priestia megaterium): 8 mm
zone of inhibition at 1000 µg/mL (Micrococcus luteus): 8 mm
zone of inhibition at 1000 µg/mL (Klebsiella pneumoniae): 8.5 mm
zone of inhibition at 1000 µg/mL (Alcaligenes faecalis): 10 mm
zone of inhibition at 1000 µg/mL (Escherichia coli): 9 mm
zone of inhibition at 1000 µg/mL (Saccharomyces cerevisiae): 7.5 mm
zone of inhibition at 1000 µg/mL (Staphylococcus aureus): 7 mm
